pIC50: −log10 of the molar value.
Key:
[1] = biological target: T1, C-terminal domain (CTD) of human STING (Homo sapiens, UniProt Q86WV6); test: STING binding FP assay III; design: recombinant human STING protein (155-379); details: 10 nM STING (FP assay III according to the text); read-out: STING binding FP assay II, IC50
Method: (§1) The interaction between molecules and the C-terminal domain (CTD) of human STING was evaluated using a competition binding assay. In this assay, recombinant human STING protein (155-379) and a STING binding fluorescent probe were employed. Upon binding of the probe to STING, the rotation of the fluorescent probe is slowed due to the larger molecular size of the protein-bound complex. As a result, emitted light retains its plane of polarization, leading to an increase in fluorescence polarization. Molecules competing for the probe binding site displace the probe, which leads to rapid randomization of the polarization plane of the emitted light and a subsequent decrease in measured fluorescence polarization signal. Change in polarization was measured, allowing a comparative evaluation of the binding affinities of different compounds to the target protein.
(§2) The assay was performed in 96-well plates (ThermoFisher, cat.# 237108) containing 100µl : 10 µL test compound in 10% DMSO and buffer A (150 mM NaCl, 50 mM HEPES pH 7.5, 1 mM DTT) + 90 µL prepared master mix solution of: 4 nM fluorescein-labelled STING ligand (Probe 1; synthesis described above) in buffer A + 0.055% Tween-20 (v/v) and 35 nM STING in buffer A. Post mixing, plates were agitated at 600rpm and incubated for 20 min at room temperature. Subsequent measurements of the fluorescence polarization signal were made on a BioTek Synergy-H1 plate reader, using a polarization filter; Exc: 485/20 nm, Em: […]) with a gain-setting of 75. IC50 values were determined using a standard non-linear regression four-parameter curve fit in Graphpad Prism.
The procedure for STING binding FP assay III is the same as described for STING binding FP assay I, except for a lower STING concentration. In STING binding FP assay III, a concentration of 10 nM STING in buffer A was used.

STING [2] = biological target: T2, STING (Homo sapiens, UniProt Q86WV6); test: Western Blot analysis for STING degradation (DC50) in HFF-1 cells; type: cell-based; design: host or cells: HFF-1 human foreskin fibroblasts; details: 24h
T2 sequence (Q86WV6 whole entry): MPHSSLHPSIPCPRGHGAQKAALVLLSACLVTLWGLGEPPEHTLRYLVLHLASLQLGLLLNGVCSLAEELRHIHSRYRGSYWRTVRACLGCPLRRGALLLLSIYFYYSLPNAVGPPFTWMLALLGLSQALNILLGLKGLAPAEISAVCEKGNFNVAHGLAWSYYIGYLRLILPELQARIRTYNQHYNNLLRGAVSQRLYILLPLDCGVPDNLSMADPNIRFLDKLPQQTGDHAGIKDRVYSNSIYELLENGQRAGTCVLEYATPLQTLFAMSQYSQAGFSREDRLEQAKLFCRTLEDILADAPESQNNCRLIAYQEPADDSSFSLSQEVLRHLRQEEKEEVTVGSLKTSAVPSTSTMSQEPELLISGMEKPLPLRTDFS
Method: To assess STING degradation in human foreskin fibroblasts HFF-1 cells (ATCC, SCRC-1041) cells were seeded at a density of 60.000 cells/well in 24-well Nunclon Delta surface treated culture plate in DMEM growth medium (supplemented with 10% FBS, 1% Pen-strep). Cells were incubated over-night at 37°C 5% CO2 to allow adhesion. Next day growth medium was renewed and a 5x concentration of test compounds (2.5% DMSO) diluted in growth medium were added to the appropriate well. The final DMSO concentration were 0.5%. Cell culture plates were returned to the incubator for additional 24h.
For cell lysing for Western Blot analysis cell culture plates were brought to ice, supernatant was removed by aspiration and cells washed 2x in ice-cold DPBS. Cells were lysed in 65 µL of RIPA buffer supplemented with cOmplete ULTRA Tablets protease inhibitor cocktail, PIERCE Phosphatase inhibitor mini tablet, Benzonase and 10mM NaF for 20 min on ice. Lysates were collected, cleared by centrifugation (13000xg for 10 min at 4°C). Samples were either analysed directly or stored at -80°C until analysis.
For Western Blotting, total protein concentration in each lysate was determined using PIERCE Gold BCA Assay kit according to manufactures protocol. 6 µg of total protein was mixed with 2x Laemmli buffer containing DTT, boiled for 5 min at 95°C, cooled on ice and loaded into each well of a 4-20% Criterion TGX gel. Proteins were separated by electrophoresis, by running for 1h at 150V. After separation proteins were blotted onto a PVDF membrane by semi-dry transfer using Trans-Blot turbo system at pre-defined BioRad MIDI protocol; 25V, 1A (fixed) for 30 min. Membranes were blocked for 1h in 5% skim milk in TBS-T20 on a rocker at room temperature followed by washing and exposure to primary antibodies against human STING 1:1000 (Cell Signalling, #13647) or loading controls Vinculin 1:1000 (Cell Signalling, #13901) or beta-Actin 1:10000 (Sigma, A5441) all diluted in 5% BSA in TBS-T20. Membranes were probed over night at 4°C on a rocker. Membranes were washed 3x in TBS-T20 followed by exposure to secondary HRP-conjugated anti-rabbit antibody or HRP-conjugated anti-mouse antibody diluted 1:10000 in 5% skim milk in TBS-T20 as appropriate. Membranes were incubated for 1h at room temperature on a rocker, then washed 3x in TBS-T20.
For generating DC50 values, the intensity of individual bands was measured using imaged and expression levels were calculated as a ratio of STING intensities vs. Reference protein intensities and normalized to DMSO control. The normalized ratios were plotted on a XY curve in GraphPad Prism where DC50 was estimated using a 4-parameter non-linear regression fitting curve.

[3] = biological target: T1, C-terminal domain (CTD) of human STING; test: STING binding FP assay II; design: recombinant human STING protein (155-379); details: 7 nM STING
Method: as §1, §2
The procedure for STING binding FP assay II is the same as described for STING binding FP assay I, except for a lower STING concentration. In STING binding FP assay II, a concentration of 7 nM STING in buffer A was used.

STING [4] = biological target: T2, STING; test: Western Blot analysis of inhibition of STING activation in HFF-1 cells; type: cell-based; design: host or cells: HFF-1 human foreskin fibroblasts; details: for STING, TBK1 and IRF1 phosphorylation: 2 h or 5 h
Method: To assess whether S1 STING ligands inhibit STING activation, primary human skin fibroblasts (Figure 5) or HFF-1 cells (Figure 6) were treated with various compounds which comprise only an S1 ligand domain and a Linker domain before undergoing Western Blot analysis as described below.
The cells were lysed and analysed on WB. […] The WB membrane was probed for p-STING, STING, p-IRF3, p-TBK1, and Vinculin.

T1 sequence (Q86WV6 155-379): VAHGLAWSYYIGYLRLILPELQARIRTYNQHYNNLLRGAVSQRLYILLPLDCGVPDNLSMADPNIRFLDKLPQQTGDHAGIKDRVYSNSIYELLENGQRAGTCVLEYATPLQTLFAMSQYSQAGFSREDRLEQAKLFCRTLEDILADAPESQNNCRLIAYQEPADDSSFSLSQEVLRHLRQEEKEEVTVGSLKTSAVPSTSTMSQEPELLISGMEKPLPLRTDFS

| pIC50 [1] | pIC50 [3] | DC50 (STING [2]; reference protein beta-actin) | Compound | other results |
| --- | --- | --- | --- | --- |
| – | 8.10 | – | CCn1nc(C)cc1C(=O)N=c1n(C)c2cc(C(N)=O)ccc2n1CCC(CCn1c(=NC(=O)c2cc(C)nn2CC)n(C)c2cc(C(N)=O)ccc21)OCC(=O)NCCOCCOCCOCCOCCC(=O)NCCOCCOCCOCCOCCOc1cccc(C(=O)c2csc([C@@H]3CCCN3C(=O)[C@@H](NC(=O)[C@H](C)NC)C3CCCCC3)n2)c1 (stereo partly shown) [Example 17] | – |
| 8.28 | – | < 200 nM | CCn1nc(C)cc1C(=O)N=c1n(C)c2cc(C(N)=O)ccc2n1CCC(CCn1c(=NC(=O)c2cc(C)nn2CC)n(C)c2cc(C(N)=O)ccc21)OCC(=O)NCCOCCOCCOCCOCCC(=O)NCCOCCOCCOCCNc1cccc2c1C(=O)N(C1CCC(=O)NC1=O)C2=O (stereo not shown) [Example 11, N-{2-[2-(2-{2-[2-(2,6-Dioxo-3-piperidyl)-1,3-dioxo-4-isoindolinylamino]ethoxy}ethoxy)ethoxy]ethyl}15-{[(3-{5-carbamoyl-2-[(1-ethyl-3-methyl-5-pyrazolyl)carbonylimino]-3-methyl-2,3-dihydro-1H-1,3-benzimidazol-1-yl}-1-(2-{5-carbamoyl-2-[(1-ethyl-3-methyl-5-pyrazolyl)carbonylimino]-3-methyl-2,3-dihydro-1H-1,3-benzimidazol-1-yl}ethyl)propoxy)methyl]carbonylamino}-4,7,10,13-tetraoxapentadecanamide] | – |
| 8.59 | – | 200 to 1000 nM | CCn1nc(C)cc1C(=O)N=c1n(C)c2cc(C(N)=O)ccc2n1CCC(CCn1c(=NC(=O)c2cc(C)nn2CC)n(C)c2cc(C(N)=O)ccc21)OCC(=O)NCCOCCOCCOCCOCCC(=O)NCCOCCNc1cccc2c1C(=O)N(C1CCC(=O)NC1=O)C2=O (stereo not shown) [Example 6, N-(2-{2-[2-(2,6-Dioxo-3-piperidyl)-1,3-dioxo-4-isoindolinylamino]ethoxy}ethyl)15-{[(3-{5-carbamoyl-2-[(1-ethyl-3-methyl-5-pyrazolyl)carbonylimino]-3-methyl-2,3-dihydro-1H-1 ,3-benzimidazol-1-yl}-1-(2-{5-carbamoyl-2-[(1-ethyl-3-methyl-5-pyrazolyl)carbonylimino]-3-methyl-2,3-dihydro-1H-1 ,3-benzimidazol-1-yl}ethyl)propoxy)methyl]carbonylamino}-4,7,10,13-tetraoxapentadecanamide] | – |
| – | 8.68 | – | CCn1nc(C)cc1C(=O)N=c1n(C)c2cc(C(N)=O)ccc2n1CCC(CCn1c(=NC(=O)c2cc(C)nn2CC)n(C)c2cc(C(N)=O)ccc21)OCC(=O)NCCOCCOCCNc1cccc2c1C(=O)N(C1CCC(=O)NC1=O)C2=O (stereo not shown) [Example 12, 1-(3-{[N-2-(2-{2-[2-(2,6-Dioxo-3-piperidyl)-1,3-dioxo-4-isoindolinylamino]ethoxy}ethoxy)ethylcarbamoyl]methoxy}-5-{5-carbamoyl-2-[(1-ethyl-3-methyl-5-pyrazolyl)carbonylimino]-3-methyl-2,3-dihydro-1H-1,3-benzimidazol-1-yl}pentyl)-2-[(1-ethyl-3-methyl-5-pyrazolyl)carbonylimino]-3-methyl-2,3-dihydro-1H-1 ,3-benzimidazole-5-carboxamide] | – |
| – | – | 200 to 1000 nM | CCn1nc(C)cc1C(=O)N=c1n(C)c2cc(C(N)=O)ccc2n1CCC(CCn1c(=NC(=O)c2cc(C)nn2CC)n(C)c2cc(C(N)=O)ccc21)OCC(=O)NCCOCCOCCOCCOCCOCCNc1cccc2c1C(=O)N(C1CCC(=O)NC1=O)C2=O (stereo not shown) [Example 3, 1-(3-{[N-2-(2-{2-[2-(2-{2-[2-(2,6-Dioxo-3-piperidyl)-1,3-dioxo-4-isoindolinylamino]ethoxy}ethoxy)ethoxy]ethoxy}ethoxy)ethylcarbamoyl]methoxy}-5-{5-carbamoyl-2-[(1-ethyl-3-methyl-5-pyrazolyl)carbonylimino]-3-methyl-2,3-dihydro-1H-1 ,3-benzimidazol-1-yl}pentyl)-2-[(1-ethyl-3-methyl-5-pyrazolyl)carbonylimino]-3-methyl-2,3-dihydro-1H-1,3-benzimidazole-5-carboxamide] | – |
| – | – | – | CCn1nc(C)cc1C(=O)N=c1n(C)c2cc(C(N)=O)ccc2n1CCC(CCn1c(=NC(=O)c2cc(C)nn2CC)n(C)c2cc(C(N)=O)ccc21)OCC(=O)N1CCC[C@H]1C(=O)N1CCc2cc(OC)ccc2C1 (stereo partly drawn) [Example A26, 1-[3-(2-{(S)-2-[(6-Methoxy-1,2,3,4-tetrahydro-2-isoquinolyl)carbonyl]-1-pyrrolidinyl}-2-oxoethoxy)-5-{5-carbamoyl-2-[(1-ethyl-3-methyl-5-pyrazolyl)carbonylimino]-3-methyl-2,3-dihydro-1H-1,3-benzimidazol-1-yl}pentyl]-2-[(1-ethyl-3-methyl-5-pyrazolyl)carbonylimino]-3-methyl-2,3-dihydro-1H-1,3-benzimidazole-5-carboxamide] | STING, TBK1 and IRF1 phosphorylation (STING [4]; 5 µM for 15 min prior to 300 nM diABZI): lower compared to cells treated with diABZI c3 alone; STING, TBK1 and IRF1 phosphorylation (STING [4]; 5 µM for 15 min prior to 8 µg/mL cGAMP): lower compared to cells treated with cGAMP alone; phosphorylation of STING, IRF1 or TBK1 (agonism) (STING [4]; compound as single agent, no activation): no phosphorylation of STING, IRF1 or TBK1 was observed |

| Compound | pIC50 [1] | pIC50 [3] | DC50 (STING [2]; reference protein beta-actin) | other results |
| --- | --- | --- | --- | --- |
| CCn1nc(C)cc1C(=O)N=c1n(C)c2cc(C(N)=O)ccc2n1CCC(CCn1c(=NC(=O)c2cc(C)nn2CC)n(C)c2cc(C(N)=O)ccc21)OCC(=O)NCCOCCOCCOCCOCCC(=O)NCCOCCOCC(=O)N[C@H]1C[C@@H](C(=O)N[C@@H]2CCCc3ccccc32)N(C(=O)[C@@H](NC(=O)[C@H](C)NC)C2CCCCC2)C1 (stereo partly shown) [Example 26] | 8.36 | – | – | DC50 (STING [2]; reference protein vinculin): < 200 nM |
| CCn1nc(C)cc1C(=O)/N=c1\n(C)c2cc(C(N)=O)ccc2n1CCC(CCn1/c(=N/C(=O)c2cc(C)nn2CC)n(C)c2cc(C(N)=O)ccc21)OCC(=O)NCCOCCOCC(=O)N[C@H](C(=O)N1C[C@H](O)C[C@H]1C(=O)NCc1ccc(-c2scnc2C)cc1)C(C)(C)C (stereo partly shown) [Example 15] | – | 8.77 | – | – |
